Data from patent publication US12338446B2, “Plants having increased tolerance to herbicides” (priority 2015, dated 2025).
Like-named read-outs stand apart in the source and are kept apart here.

Legend:
[1] = test system: Transgenic Arabidopsis thaliana plants with wildtype or mutated PPO sequences; assay: Tolerance of transgenic Arabidopsis thaliana plants to PPO-inhibiting herbicides in 48-well plates (growth inhibition); assay type: in vivo; conditions: seven to ten days after seeding
Protocol: Transformed cells are selected in selection media supplemented with 0.5-1.5 μM imazethapyr for 3-4 weeks. Transgenic plantlets are regenerated on plant regeneration media and rooted afterwards. Transgenic plantlets are subjected to TaqMan analysis for the presence of the transgene before being transplanted to potting mixture and grown to maturity in greenhouse. Arabidopsis thaliana are transformed with wildtype or mutated PPO sequences by floral dip method as described by McElver and Singh (WO 2008/124495). Transgenic Arabidopsis plants are subjected to TaqMan analysis for analysis of the number of integration loci. Transformation of Otyza sativa (rice) are done by protoplast transformation as described by Peng et al. (U.S. Pat. No. 6,653,529) TO or T1 transgenic plant of soybean, corn, and rice containing mutated PPO sequences are tested for improved tolerance to PPO-derived herbicides in greenhouse studies and mini-plot studies with the following PPO-inhibiting herbicides: saflufenacil, 1,5-dimethyl-6-thioxo-3-(2,2,7-trifluoro-3-oxo-4-(prop-2-ynyl)-3,4-dihydro-2H-benzo[b][1,4]oxazin-6-yl)-1,3,5-triazinane-2,4-dione (CAS 1258836-72-4), flumioxazin, butafenacil, acifluorfen, lactofen, bifenox, sulfentrazone, and photosynthesis inhibitor diuron as negative control.
Transgenic Arabidopsis thaliana plants are assayed for improved tolerance to saflufenacil, 1,5-dimethyl-6-thioxo-3-(2,2,7-trifluoro-3-oxo-4-(prop-2-ynyl)-3,4-dihydro-2H-benzo[b][1,4]oxazin-6-yl)-1,3,5-triazinane-2,4-dione (CAS 1258836-72-4), flumioxazin, butafenacil, acifluorfen, lactofen, bifenox, sulfentrazone, and photosynthesis inhibitor diuron as negative control in 48-well plates. Therefore, T2 seeds are surface sterilized by stirring for 5 min in ethanol+water (70+30 by volume), rinsing one time with ethanol+water (70+30 by volume) and two times with sterile, deionized water. The seeds are resuspended in 0.1% agar dissolved in water (w/v) Four to five seeds per well are plated on solid nutrient medium consisting of half-strength murashige skoog nutrient solution, pH 5.8 (Murashige and Skoog (1962) Physiologia Plantarum 15: 473-497). Compounds are dissolved in dimethylsulfoxid (DMSO) and added to the medium prior solidification (final DMSO concentration 0.1%). Multi well plates are incubated in a growth chamber at 22° C., 75% relative humidity and 110 μmol Phot*m^−2*s^−1 with 14:10 h light: dark photoperiod. Growth inhibition is evaluated seven to ten days after seeding in comparison to wild type plants.

[2] = test system: Nicotiana benthamiana leaf discs; assay: PSII yield inhibition (chlorophyll fluorescence, imaging PAM) in transiently transformed tobacco leaf discs; assay type: cell-based; conditions: read-out: IC50 of PSII yield inhibition
Source text: Transient expression of PPO sequences (e.g. SEQ ID NO: 184) as wildtype or with respective mutations were done as described previously (Voinnet O., et al., 2003, The Plant Journal 33, 949-956). In brief, cloning of GOI and Agrobacterium transformation (strain: GV2260) were done as described in EXAMPLE 5. Young leaves of
Nicotiana benthamiana were infiltrated with transgenic Agrobacterium suspension (OD^600 of 1.0) harboring binary vector constructs containing a GO/gene controlled by a promoter and terminator sequence. 48 h to 72 h after infiltration punches of leave discs (0.75 cm in diameter) were transferred to 6-well plates with medium (half strength Linsmaier-Skoog (Linsmaier and Skoog (1965) Physiol. Plant. 18: 100-127) nutrient solution or water) containing herbicide of interest in different concentrations. […]
Leaf discs, generated as described in EXAMPLE 14, expressing a protein encoded by GOI, were subjected to analysis on improved tolerance to herbicide treatment. For analysis of herbicide damage, chlorophyll fluorescence were identified as indicative marker (Dayan and Zaccaro (2012) Pest. Biochem. Physiol. 102: 189-197). […] PSII yield were measured as per manufacturer instructions. Tolerance factors were calculated based on IC50 values of PSII yield inhibition of transformed versus empty vector-transformed leaf discs. […]

[3] = gene CHLSP_PPO_wt_tpFNR, Chloroflexus sp. (SEQ ID NO: 21)
[4] = gene OPITE_PPO_wt_tpFNR, Opitutus marinus (SEQ ID NO: 9)
[5] = gene RHOMA_PPO_F353V_tpFNR, Rhodotermus marinus (SEQ ID NO: 3 oder 5)
[6] = gene RHOMA_PPO_wt_tpFNR, Rhodotermus marinus (SEQ ID NO: 3 oder 5)
[7] = gene hemG_tpFNR, Escherichia coli (SEQ ID NO: 184)

SMILES: C#CCN1C(=O)C(F)(F)Oc2cc(F)c(-n3c(=O)n(C)c(=S)n(C)c3=O)cc21 [BAS 850H, 1,5-dimethyl-6-thioxo-3-(2,2,7-trifluoro-3-oxo-4-(prop-2-ynyl)-3,4-dihydro-2H-benzo[b][1,4]oxazin-6-yl)-1,3,5-triazinane-2,4-dione]
- improved tolerance (growth inhibition in comparison to wild type plants) [1, 3]: 1500
- improved tolerance (growth inhibition in comparison to wild type plants) [1, 4]: 9
- improved tolerance (growth inhibition in comparison to wild type plants) [1, 5]: 1
- improved tolerance (growth inhibition in comparison to wild type plants) [1, 6]: 1
- improved tolerance (growth inhibition in comparison to wild type plants) [1, 7]: 4433
- IC50 ([2]; empty vector-transformed leaf discs, treated for 48 h): 11 nM

SMILES: CC(C)N(C)S(=O)(=O)NC(=O)c1cc(-n2c(=O)cc(C(F)(F)F)n(C)c2=O)c(F)cc1Cl [Saflufenacil, saflufenacil]
- improved tolerance (growth inhibition in comparison to wild type plants) ([1]; gene AC IB A_hemJ_wt_tpFNR, Acinetobacter baylyi (SEQ ID NO: 312)): 1
- improved tolerance (growth inhibition in comparison to wild type plants) ([1]; gene CALNI_PPO_wt_tpFNR, Calditerrivibrio nitroreducens (SEQ ID NO: 48)): 1
- improved tolerance (growth inhibition in comparison to wild type plants) ([1]; gene CANME_PPO_wt_tpFNR, Candidatus methylomirabilis (SEQ ID NO: 54 or 57)): 1
- improved tolerance (growth inhibition in comparison to wild type plants) [1, 3]: 640
- improved tolerance (growth inhibition in comparison to wild type plants) ([1]; gene HYDTH_PPO_wt_tpFNR, Hydrogenobacter thermophilus (SEQ ID NO: 27)): 10
- improved tolerance (growth inhibition in comparison to wild type plants) ([1]; gene LARHO_PPO_wt_tpFNR, Laribacter hongkongensis (SEQ ID NO: 34)): 1
- improved tolerance (growth inhibition in comparison to wild type plants) [1, 4]: 14
- improved tolerance (growth inhibition in comparison to wild type plants) [1, 5]: 1
- improved tolerance (growth inhibition in comparison to wild type plants) [1, 6]: 1
- improved tolerance (growth inhibition in comparison to wild type plants) [1, 7]: 332
- IC50 ([2]; 48 h): 110 nM
